“Also recorded” adds a separate entry of the source.
Tests used:
[1] = system: Pseudomonas syringae pv. tomato DC3000 (Pst); experiment: Resistance of Arabidopsis to Pseudomonas syringae pv. tomato DC3000 (bacterial growth); assay type: in vivo; details: for protection against Pst DC3000: compared with 1 μM
Heterodera schachtii = experiment: Arabidopsis cyst nematode infection assay; assay type: in vivo
M. incognita = experiment: Arabidopsis root knot nematode infection assay; assay type: in vivo, Meloidogyne incognita
MPK3 and MPK6 = experiment: MAPK activation phosphorylation in Arabidopsis leaves (immunoblot); assay type: in vivo, Arabidopsis thaliana; details: leaf infiltration 1 μM; 10 minutes
[2] = system: FRK1, PHI1, PR-4, AOS, GSTF6, LOX2; experiment: Defense gene markers in Arabidopsis leaves after root pretreatment (qRT-PCR); assay type: in vivo, Arabidopsis thaliana; details: root treatment 1 μM
[3] = system: EBF1, ERS1, ERS2, ERF1, ACO1, SAUR34, DRM2, AUX1, IAA6 and ARF19; experiment: Ethylene- and auxin-responsive gene markers in Arabidopsis leaves after root pretreatment (qRT-PCR); assay type: in vivo, Arabidopsis thaliana; details: root treatment 1 μM, 24 hpt
tomato suspension cells = assay type: cell-based
Botrytis cinerea = experiment: Resistance of tomato to Botrytis cinerea B05.01 (detached leaflet assay); assay type: in vivo; details: tomato cv. M82; root immersion 0.01 μM 48 hours before
Pst DC3000 = experiment: Resistance of tomato to Pst DC3000 (bacterial growth); assay type: in vivo, Pseudomonas syringae pv. tomato
[4] = system: GRAS4, GST, β-1,3-glucanase, AOS2; experiment: Defense response genes in tomato leaves after root pretreatment (qRT-PCR); assay type: in vivo, tomato (Solanum lycopersicum); details: root treatment 10 nM
E. coli = experiment: Disk-diffusion assay, E. coli; details: up to 10 mM
B. subtilis = experiment: Disk-diffusion assay, B. subtilis; details: up to 10 mM
Aspergillus fumigatus = experiment: Disk-diffusion assay, Aspergillus fumigatus; details: up to 10 mM
PR-1 [5] = experiment: PR-1 gene expression in barley leaves (qRT-PCR)
Description: Barley leaves were sprayed with the indicated concentrations of ascr #18 48 hours before inoculation with Blumeria graminis f. sp. hordei (Bgh). […] Leaves of barley plants were sprayed with water or ascr #18 (1 μM). Plants were inoculated with Bgh 48 hours post treatment. Leaves were collected at 16 hpi and used to extract RNA for qRT-PCR analysis. Data are average±SD (n=3, where n denotes the number of independent samples). (*P≤0.05; **P≤0.005; ***P≤0.0005, two-tailed t-test).
Leaves of barley plants were sprayed with various concentrations of ascr #18 or water (mock) for 48 hours. 48 hours post treatment plants were inoculated with Bgh. Leaves were collected at 16 hpi and used to extract RNA for qRT-PCR analysis.
For barley analyses, RNA extraction from infected barley leaves was performed with TRIzol (Invitrogen) following the manufacturer's instructions. Freshly extracted mRNA was used for cDNA synthesis using QuantiTect Reverse-Transcription kit (Qiagen). cDNA was stored at −20° C. For qRT-PCR, 50 ng of cDNA was used as template in the Applied Biosystems 7500 FAST real time PCR system. Amplifications were performed in 7.5 μL of SYBER green JumpStart Taq ReadyMix (Sigma-Aldrich) with 0.5 pmol oligonucleotides. […] Ubiquitin was used as an endogenous reference gene.

PR-1, FRK1, PHI1, WRKY53 = experiment: Defense gene expression in Arabidopsis roots (qRT-PCR)
Description: FIG. 18C: Eight days old Arabidopsis seedlings were treated by root bathing using the indicated concentrations of ascr #18. Root samples were collected 6 hours after treatment for RNA extraction. Transcript levels of PHI1, FRK1 and WRKY53 were determined by qRT-PCR and normalized to endogenous UFP (AT4G01000) . *P≤0.05; **P≤0.005; ***P≤0.0005, two-tailed 1-test.
Roots of Arabidopsis seedlings were treated with water (CK) or with various ascr #18 concentrations for 48 hours. Roots were then collected and used to extract RNA for qRT-PCR analysis.
For the RNA analyses in roots, Arabidopsis roots were collected from 20-30 seedlings from each treatment and mRNA was isolated using the Dynabeads mRNA DIRECT Kit (Life Technologies). DNA contamination was removed by treatment with DNase I (Life Technologies). First-strand cDNA was synthesized from 50 ng of mRNA using ProtoScript II Reverse Transcriptase (NEB). […] All assays consisted of three technical replicates for each RNA sample. Data was analyzed using the iCycler iQ Real-Time PCR Detection System Software version 3.0a (Bio-Rad). The Arabidopsis UFP gene (AT4G01000) was used as an endogenous reference gene. PCR was started with an activation and DNA denaturation step (95° C. for 3 minutes), then followed by 40 cycles of 95° C. for 20 seconds and 60° C. for 40 seconds.

PR-1 [6] = experiment: PR-1 expression in Arabidopsis leaves (semi-quantitative PCR / qRT-PCR)
PR-1 [7] = experiment: PR-1 protein/transcript induction in tobacco leaves (immunoblot, RT-PCR)
Description: Four-weeks old tobacco plants were syringe-infiltrated with buffer, SA, or a mixture of SA (50 μM or 500 μM) and decreasing concentration of ascr #18 (10, 0.3, and 0.01 μM). PR-1 was assayed 48 hours after treatment by immunoblot using anti-PR-1 antibody.
PR-1 expression was analyzed 48 hp SA treatment.
To determine whether ascr #18 affects levels of the prototypic SA-responsive PR-1 gene/protein, tobacco plants were treated with varying concentrations of ascr #18 in the presence or absence of SA (FIG. 2).

[8] = system: Blumeria graminis f. sp. hordei (Bgh); experiment: Resistance of barley to Blumeria graminis f. sp. hordei (pustule count); details: barley cv. Golden Promise; leaves sprayed 0.01 μM to 1 μM 48 hours before inoculation; 7 dpi
Description: Barley leaves were sprayed with the indicated concentrations of ascr #18 48 hours before inoculation with Blumeria graminis f. sp. hordei (Bgh). Photograph of barley leave segments infected with Bgh were taken at 7 days post inoculation (dpi). FIG. 15C: Provides the number of Bgh pustules counted at 7 dpi. […] Leaves of barley plants were sprayed with water or ascr #18 (1 μM). Plants were inoculated with Bgh 48 hours post treatment. […] Data are average±SD (n=3, where n denotes the number of independent samples). (*P≤0.05; **P≤0.005; ***P≤0.0005, two-tailed t-test).
For barley cv. Golden Promise, 7-days old seedlings were pretreated by spraying with different concentrations of ascr #18. Inoculation with Bgh was done 48 hours post treatment using a detached leaflet assay. Briefly 10 leaves from 5 different plants per treatment were cut and transferred to Petri dishes containing 1% water agar. Leaves were then inoculated with Bgh. Water was used as mock control. Pustules were counted 7 dpi.

PDF1.2 = PDF1.2 expression in Arabidopsis leaves (semi-quantitative PCR / qRT-PCR)
[9] = system: Pseudomonas syringae pv. tabaci; experiment: Resistance of tobacco to Pseudomonas syringae pv. tabaci (bacterial growth); details: for resistance to P. syringae pv tabaci: 2 dpi
[10] = root pretreatment 10 nM, 48 hours
[11] = root treatment of seedlings, various concentrations, 48 hours
[12] = leaf infiltration 0.01 μM or 0.3 μM, 24 hpt, qRT-PCR
[13] = leaf pretreatment by syringe infiltration, 0.01, 0.3, and 10 μM

CC1O[C@@H](O[C@@H](C)CCCCCCCCC(=O)O)C(O)C[C@H]1O (stereo in doubt) [ascr #18, (10R)-(3′R,5′R-dihydroxy-6′S-methyl-(2H)-tetrahydropyran-2-yloxy)-undecanoic Acid]
resistance to Pst, co-treatment ([1]; ascr #18 0.3 μM with SA 50 μM, leaf infiltration): further enhanced resistance; also recorded: strongly enhanced resistance
concentration for best/maximal protection against leaf infection (Pst; bacterial and viral pathogens) ([1]; in vivo): 1 µM
resistance to virulent Pst DC3000 (bacterial growth) ([1]; leaf syringe infiltration 0.3 μM 24 hours prior to inoculation, 3 dpi): enhanced resistance; also recorded: low level of protection
resistance to P. syringae pv tomato ([1]; root immersion 0.3 μM, 1 μM, or 5 μM 24 hours prior to inoculation): enhanced resistance
protection against Pst DC3000 ([1]; root immersion 0.3 μM): less effective
protection against Pst DC3000 (bacterial growth) ([1]; root immersion 1 μM, 24 hours before inoculation, 3 dpi): strong protection; also recorded: reduced growth
protection against Pst DC3000 ([1]; root immersion 5 μM): less effective
concentration providing best protection against root infection (Heterodera schachtii; Arabidopsis, cyst nematodes): 10 nM
resistance to H. schachtii (females counted) (Heterodera schachtii; media containing 50 nM or 600 nM, 19 dpi): enhances resistance
infection with cyst nematode H. schachtii (Heterodera schachtii; [10]): significantly reduced infection
concentration providing best protection against root infection (M. incognita; Arabidopsis, root knot nematodes): 10 nM
infection with root knot nematode M. incognita (M. incognita; [10]): significantly reduced infection
phosphorylation of MPK3 and MPK6 (MPK3 and MPK6): transient increase in the phosphorylation of both MAPKs; also recorded: Activation
FRK1 expression in leaves ([2]; 6 hpt): induced
AOS expression in leaves ([2]; 24 hpt): increased expression
GSTF6 expression in leaves ([2]; 24 hpt): increased expression
LOX2 expression in leaves ([2]; 24 hpt): increased expression
PHI1 expression in leaves ([2]; 24 hpt): induced
PR-4 expression in leaves ([2]; 24 hpt): increased expression
auxin or ET-regulated defense signaling ([3]; 10 genes): does not strongly affect auxin or ET-regulated defense signaling
SAUR34 expression ([3]; only one of 10 tested genes): enhanced
media alkalinization (pH of culture medium) (tomato suspension cells): induced media alkalinization in a dose-dependent manner
resistance to B. cinerea (lesion size 3 dpi) (Botrytis cinerea): did not have a significant effect
growth of Pst DC3000 in tomato leaves (Pst DC3000; higher concentrations than 10 nM): less effective
growth of Pst DC3000 in tomato leaves (Pst DC3000; tomato cv. M82, root treatment 10 nM 48 hours before, 4 dpi): significantly reduced the growth
β-1,3-glucanase transcript level in leaves ([4]; 24 hpt): enhanced levels
AOS2 transcript level in leaves ([4]; 48 hpt): significantly elevated
GRAS4 transcript level in leaves ([4]; 48 hpt): significantly elevated
GST transcript level in leaves ([4]; 48 hpt): significantly elevated
β-1,3-glucanase transcript level in leaves ([4]; 48 hpt): significantly elevated
growth inhibition (E. coli): no growth inhibition
growth inhibition (B. subtilis): no growth inhibition
growth inhibition (Aspergillus fumigatus): no growth inhibition
PR-1 gene expression, with Bgh inoculation (PR-1 [5]; 1 μM ascr #18 plus inoculation with Bgh, 16 hpi): further enhanced; also recorded: even higher levels of PR-1 expression
PR-1 gene expression (PR-1 [5]; barley leaves sprayed, 1 μM, 48 hours): induces PR-1 gene expression; also recorded: induced PR-1 transcript accumulation; also recorded: induction of PR-1 gene
root expression of FRK1 (PR-1, FRK1, PHI1, WRKY53; 10 or 50 nM, within 6 hours): induced
root expression of PHI1 (PR-1, FRK1, PHI1, WRKY53; 10 or 50 nM, within 6 hours): induced
root expression of WRKY53 (PR-1, FRK1, PHI1, WRKY53; 10 or 50 nM, within 6 hours): induced
FRK1 expression in roots (PR-1, FRK1, PHI1, WRKY53; [11]): induces; also recorded: induction
PR-1 expression in roots (PR-1, FRK1, PHI1, WRKY53; [11]): induces; also recorded: induction
PR-1 expression (PR-1 [6]; ascr #18 (0.01 or 0.3 μM) alone, test leaves or roots treated, 24 hours): induces PR-1 expression even in the absence of SA; also recorded: altered
SA-mediated PR-1 expression (PR-1 [6]; ascr #18 co-applied with SA (50 μM) to leaves or applied through roots): suppresses SA-mediated PR-1 expression
PR-1 transcripts (PR-1 [6]; [12]): elevated; also recorded: Induction
PR-1 expression in Arabidopsis (PR-1 [6]; [13]): +
PR-1 accumulation in presence of SA (PR-1 [7]; ascr #18 0.01 or 0.3 μM with SA 500 μM or 50 μM, leaf infiltration, vs SA only): enhanced PR-1 accumulation
PR-1 protein accumulation (PR-1 [7]; tobacco leaves, ascr #18 alone 0.01, 0.3, or 10 μM, syringe infiltration, 48 hours): did not induce PR-1 protein accumulation
resistance to Bgh (number of pustules) [8]: enhances basal resistance; also recorded: increased resistance to Bgh; also recorded: enhanced resistance
PDF1.2 expression, systemic (PDF1.2; a subset of leaves treated): induced PDF1.2 expression in untreated, as well as treated, leaves
PDF1.2 expression (PDF1.2; ascr #18 (0.01 or 0.3 μM), test leaves or roots treated, 24 hours): induces expression of the prototypic JA-responsive PDF1.2 gene; also recorded: altered
PDF1.2 transcripts (PDF1.2; [12]): elevated; also recorded: Induction
PDF1.2 expression in Arabidopsis (PDF1.2; [13]): +
resistance to P. syringae pv tabaci, SA added ([9]; SA 50 μM infiltrated 24 hours after ascr #18 0.01 μM pretreatment): no further enhancement of resistance
resistance to virulent P.t. (bacterial growth) ([9]; ascr #18 0.01 μM alone, leaves (infiltration) or roots (immersion) 24 hours before inoculation, 48 hpi): sufficient to enhance resistance; also recorded: enhanced resistance
virulent P.t. growth, both compounds ([9]; ascr #18 and SA provided simultaneously, vs single treatment): no greater reduction
resistance to P. syringae pv tabaci ([9]; leaf syringe infiltration 0.01 μM, inoculation 48 hours after): enhanced resistance
resistance to P. syringae pv tabaci ([9]; root immersion, ascr #18 0.01 μM or 0.03 μM): enhances resistance
resistance to P. syringae pv tabaci ([9]; spray 0.01 μM 48 hours before inoculation): enhances resistance
resistance to P. syringae pv tabaci, combination ([9]; spray ascr #18 0.01 μM combined with SA 50 μM): did not further increase resistance

Source: US12382888B2, “Compositions and methods for modulating immunity in plants” (Boyce Thompson Institute for Plant Research, Inc., priority 2013, dated 2025)
